The record followed here is ChEMBL document CHEMBL1201862, “PubChem BioAssay data set” (2004).

Structures are written as SMILES.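 Where inhibition never reached the appropriate level, the endpoint shown equals the highest concentration tested. Otherwise, values were interpolated linearly from a five-concentration, 48-hour dose response in 96-well plates. GI50 marks 50% less growth.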 The source made the active and inactive calls. No stated cut-off is given here; in the data, active = GI50 up to about 1.1 µM and inactive = higher.

Some test systems named below: 786-0; A549; CAKI-1; CCRF-CEM; DU-145; HL-60; HOP-92; Hs-578T; K562; MCF7; NCI-H226; NCI-H460; RPMI-8226; SK-MEL-28; SN12C; SNB-75; SR; SW-620; U-251; UACC-62.
Common to all, as to test: growth of human tumour cells (NCI), 48 h

`S=C1SSC2N=CC=CC12` (stereo not given): the GI50 was > 100 µM (inactive) with 786-0; 47.1 µM (inactive) in the test with A549; 19.7 µM (inactive) in the test with CAKI-1; 5.66 µM (inactive) with CCRF-CEM; > 100 µM (inactive) in the test with DU-145; 40.5 µM (inactive) in the test with HL-60. Moreover, the GI50 with HOP-92 was 74.1 µM (inactive); in the test with Hs-578T, > 100 µM (inactive); with K562, 49.1 µM (inactive); with MCF7, 36.7 µM (inactive); in the test with NCI-H226, > 100 µM (inactive); with NCI-H460 it was 31.4 µM (inactive). The GI50 is 63.8 µM (inactive) in the test on RPMI-8226; > 100 µM (inactive) in the test with SK-MEL-28; > 100 µM (inactive) in the test on SN12C; > 100 µM (inactive) in the test with SNB-75; 45.4 µM (inactive) in the test with SR; > 100 µM (inactive) with SW-620. For the same molecule, the GI50 in the test with U-251 is > 100 µM (inactive); in the test with UACC-62 it was 76.4 µM (inactive).
As to `O=C(O)c1cnc2cc(OCc3ccccc3)ccc2c1O`, the GI50 is 18.5 µM (inactive) in the test with 786-0; 19.5 µM (inactive) in the test on A549; 20.2 µM (inactive) with CAKI-1; 5.37 µM (inactive) with CCRF-CEM; 18 µM (inactive) with DU-145; 0.256 µM (active) with HL-60. In addition, the GI50 in the test on HOP-92 was 19.4 µM (inactive); with Hs-578T, 20 µM (inactive); with K562 it was 23.6 µM (inactive); in the test on MCF7, 20.1 µM (inactive); in the test on NCI-H226, 18.3 µM (inactive); in the test with NCI-H460, 19.4 µM (inactive). Besides, the GI50 with RPMI-8226 was 24.8 µM (inactive); in the test on SK-MEL-28 it was 16 µM (inactive); in the test with SN12C it was 18.2 µM (inactive); with SNB-75 it was 15.7 µM (inactive); in the test with SR it was 23 µM (inactive); in the test on SW-620, 19.2 µM (inactive). The GI50 is 18.6 µM (inactive) in the test on U-251 and 16.8 µM (inactive) with UACC-62.
Consider `C[C@@H]1CCC([C@@H](C)[C@H]2CC[C@H]3[C@@H]4CC[C@H]5C[C@@H](O)CC[C@]5(C)[C@H]4CC[C@]23C)=NC1`, for which the GI50 is 8.02 µM (inactive) in the test on 786-0; 16.9 µM (inactive) in the test with A549; 12.7 µM (inactive) in the test on CAKI-1; > 41.1 µM (inactive) in the test with CCRF-CEM; > 47 µM (inactive) in the test on DU-145; 1.36 µM (inactive) with HL-60. For the same molecule, the GI50 in the test with HOP-92 was > 41.9 µM (inactive); in the test on Hs-578T, 33.7 µM (inactive); with K562, 3.68 µM (inactive); in the test with MCF7, 9.04 µM (inactive); in the test with NCI-H226 it was > 29.8 µM (inactive); in the test on NCI-H460, 7.62 µM (inactive). The GI50 was 2.77 µM (inactive) with RPMI-8226; 20.1 µM (inactive) in the test on SK-MEL-28; 8.59 µM (inactive) in the test on SN12C; 19.1 µM (inactive) in the test on SNB-75; 12 µM (inactive) in the test on SR; 40.8 µM (inactive) with SW-620. Also, the GI50 with U-251 is 8.63 µM (inactive); in the test with UACC-62, 15.9 µM (inactive).
In the case of `COc1ccc2c(c1)CC[C@@H]1[C@@H]2CC[C@]2(C)/C(=N/OCCN3CCCCC3)CC[C@@H]12`, the GI50 was 1.85 µM (inactive) with 786-0; 5.35 µM (inactive) in the test with A549; 1.94 µM (inactive) in the test on CAKI-1; 3.28 µM (inactive) with CCRF-CEM; 3.85 µM (inactive) with DU-145; 2.79 µM (inactive) with HL-60. Also, the GI50 with HOP-92 is 3.44 µM (inactive); with Hs-578T, 6.76 µM (inactive); with K562, 2.79 µM (inactive); in the test on MCF7, 6.95 µM (inactive); in the test on NCI-H226, 5.43 µM (inactive); in the test on NCI-H460, 2.5 µM (inactive). In addition, the GI50 in the test with RPMI-8226 is 2.62 µM (inactive); with SK-MEL-28, 2.12 µM (inactive); in the test with SN12C, 4.34 µM (inactive); in the test with SNB-75, 5.69 µM (inactive); in the test on SR it was 2.44 µM (inactive); with SW-620, 5.11 µM (inactive). Moreover, the values for the GI50 in the test on U-251 and in the test with UACC-62 were 8.09 µM (inactive) and 2.06 µM (inactive), respectively.
